≈ marks a conversion by molar mass, not a printed value.
Assays:
[1] = Competitive ripening (relative thermodynamic stability of non-solvated forms); conditions: for Nature (thermodynamic stability of crystal form): Table 6 summary
[2] = D9 solubility in the liquors at isolation temperature; format: physicochemical; conditions: organic solvent or mixture, thermodynamic from solid
Procedure: At the end of each experiment, suspensions were equilibrated at the isolation temperature (25 or 5° C.) for at least 18 hours and the solids and liquors separated by centrifugation at the isolation temperature. The Exo/D9/D8 ratio (Exo-D9-THC-naphthoylester impurity/D9-THC-naphthoylester/D8-THC-naphthoylester) was determined in both the isolated solids and the liquors, from which the % Exo-depletion in the isolated solids was calculated. Several solids were also isolated at elevated temperatures to assess the impact of the isolation temperature on Exo-impurity depletion.
In addition, the solubility of D9 in the liquors was determined in most of the explored solvents and used to estimate the yield.

[3] = Experiment No. 10, n-BuOH, 25 °C
[4] = Experiment No. 14, Toluene/EtOH (1:9), 5 °C
[5] = Experiment No. 16, n-BuOH, 5 °C

CCCCCc1cc(OC(=O)c2ccc3ccccc3c2)c2c(c1)OC(C)(C)[C@@H]1CCC(C)=C[C@@H]21 [A, B, C, E, G]
Form Isolated 1-3 d ([1]; Experiment No. 7, Acetone/MeOH (1:3), 25 °C): E/G | Form Isolated 1-3 d ([1]; Experiment No. 8, Toluene/EtOH (1:9), 25 °C): G/E | Form Isolated 1-3 d [1, 3]: B/G | Form Isolated 4-9 d [1, 3]: B/G | Form Isolated 4-9 d [1, 4]: B/G | Form Isolated 26-29 d [1, 4]: G/B(tr) | Form Isolated 4-9 d [1, 5]: B/G | Form Isolated 26-29 d [1, 5]: B/G

CCCCCc1cc(OC(=O)c2ccc3ccccc3c2)c2c(c1)OC(C)(C)[C@@H]1CCC(C)=C[C@@H]21 [B, G, H]
Form Isolated 12 d ([1]; Experiment No. 17, Toluene/EtOH (1:9), 5 °C): G/H | Form Isolated 12 d ([1]; Experiment No. 18, Heptane, 5 °C): H/B(tr) | Form Isolated 12 d ([1]; Experiment No. 19, n-BuOH, 5 °C): B/H

CCCCCc1cc(OC(=O)c2ccc3ccccc3c2)c2c(c1)OC(C)(C)[C@@H]1CCC(C)=C[C@@H]21 [E, G]
Form Isolated 4-9 d ([1]; Experiment No. 15, Heptane, 5 °C): G/B

CCCCCc1cc(OC(=O)c2ccc3ccccc3c2)c2c(c1)OC(C)(C)[C@@H]1CCC(C)=C[C@@H]21 [Form A, (6aR,10aR)-6a,7,8,10a-tetrahydro-6,6,9-trimethyl-3-pentyl-6H-dibenzo[b,d]pyran-1-yl ester]
Nature (thermodynamic stability of crystal form) [1]: Metastable

CCCCCc1cc(OC(=O)c2ccc3ccccc3c2)c2c(c1)OC(C)(C)[C@@H]1CCC(C)=C[C@@H]21 [Form C, (6aR,10aR)-6a,7,8,10a-tetrahydro-6,6,9-trimethyl-3-pentyl-6H-dibenzo[b,d]pyran-1-yl ester]
solubility ([2]; crystallisation liquors over suspended solid, 5 °C, batch 5, MeCN/MIBK (8:2), seed D, heat T 50, isolation T 5, SP 6, 20.0 mL/g): 21600 µg/mL (≈ 46.1 mM) | solubility ([2]; crystallisation liquors over suspended solid, 5 °C, batch 5, MeCN/MeOH (9:1), seed D/G, heat T 50, isolation T 5, SP 6, 30.0 mL/g): 8400 µg/mL (≈ 17.9 mM) | solubility ([2]; crystallisation liquors over suspended solid, 25 °C, batch 5, MeCN, seed D, heat T 50, isolation T 25, SP 5, 30.0 mL/g): 8600 µg/mL (≈ 18.4 mM) | solubility ([2]; crystallisation liquors over suspended solid, 25 °C, batch 5, MeCN/MIBK (8:2), seed D, heat T 50, isolation T 25, SP 2, 3.2 mL/g): 25500 µg/mL (≈ 54.4 mM) | solubility ([2]; crystallisation liquors over suspended solid, 25 °C, batch 5, MeCN/MIBK (8:2), seed D, heat T 50, isolation T 25, SP 5, 20.0 mL/g): 22300 µg/mL (≈ 47.6 mM) | solubility ([2]; crystallisation liquors over suspended solid, 25 °C, batch 5, MeCN/MeOH (9:1), seed D/G, heat T 50, isolation T 25, SP 5, 30.0 mL/g): 8700 µg/mL (≈ 18.6 mM) | Nature (thermodynamic stability of crystal form) [1]: Metastable

CCCCCc1cc(OC(=O)c2ccc3ccccc3c2)c2c(c1)OC(C)(C)[C@@H]1CCC(C)=C[C@@H]21 [Form E, (6aR,10aR)-6a,7,8,10a-tetrahydro-6,6,9-trimethyl-3-pentyl-6H-dibenzo[b,d]pyran-1-yl ester]
solubility ([2]; crystallisation liquors over suspended solid, 25 °C, batch 5, Nitromethane, seed G, heat T 40, isolation T 25, 32.6 mL/g, SP 3): 7000 µg/mL (≈ 14.9 mM) | Nature (thermodynamic stability of crystal form) [1]: Metastable

CCCCCc1cc(OC(=O)c2ccc3ccccc3c2)c2c(c1)OC(C)(C)[C@@H]1CCC(C)=C[C@@H]21 [Form G, (6aR,10aR)-6a,7,8,10a-tetrahydro-6,6,9-trimethyl-3-pentyl-6H-dibenzo[b,d]pyran-1-yl ester]
solubility ([2]; crystallisation liquors over suspended solid, 25 °C, batch 5, Anisole/MeOH (1:9), seed E/G, heat T 50, isolation T 25, 9.4 mL/g, SP 3): 8100 µg/mL (≈ 17.3 mM) | solubility ([2]; crystallisation liquors over suspended solid, 25 °C, batch 5, Cyclohexanone/MeOH (1:3), seed G, heat T 40, isolation T 25, 9.4 mL/g, SP 3): 34400 µg/mL (≈ 73.4 mM) | solubility ([2]; crystallisation liquors over suspended solid, 25 °C, batch 5, EtOAc/EtOH (1:9), seed G/H, heat T 55, isolation T 25, 5.0 mL/g, SP 15, Exp 53): 17800 µg/mL (≈ 38 mM) | solubility ([2]; crystallisation liquors over suspended solid, 25 °C, batch 5, EtOAc/MeOH (1:2), seed H, heat T 55, isolation T 25, 8.0 mL/g, SP 21, Exp 50): 18500 µg/mL (≈ 39.5 mM) | solubility ([2]; crystallisation liquors over suspended solid, 25 °C, batch 5, EtOAc/MeOH (1:3), seed G/H, heat T 55, isolation T 25, 10.0 mL/g, SP 15, Exp 55): 9700 µg/mL (≈ 20.7 mM) | solubility ([2]; crystallisation liquors over suspended solid, 25 °C, batch 5, MEK/MeOH (3:7), seed G/H, heat T 55, isolation T 25, 5.0 mL/g, SP 15, Exp 51): 23200 µg/mL (≈ 49.5 mM) | solubility ([2]; crystallisation liquors over suspended solid, 25 °C, batch 5, Toluene/MeOH (1:9), seed E/G, heat T 50, isolation T 25, 9.6 mL/g, SP 3): 6500 µg/mL (≈ 13.9 mM) | solubility ([2]; crystallisation liquors over suspended solid, 25 °C, batch 5, Toluene/MeOH (5:95), seed H, heat T 50, isolation T 25, 10.0 mL/g, SP 20, Exp 44): 3400 µg/mL (≈ 7.26 mM) | solubility ([2]; crystallisation liquors over suspended solid, 25 °C, batch 5, p-Xylene/MeOH (1:9), seed E/G, heat T 50, isolation T 25, 19.5 mL/g, SP 3): 7500 µg/mL (≈ 16 mM) | solubility ([2]; liquors of the equilibrated crystallisation suspension, 25 °C, batch 5, Cyclohexanone/MeOH (1:3), seed G, heat T 25, isolation T 25, 30.0 mL/g, SP 7): 29300 µg/mL (≈ 62.5 mM) | Nature (thermodynamic stability of crystal form) [1]: Metastable

CCCCCc1cc(OC(=O)c2ccc3ccccc3c2)c2c(c1)OC(C)(C)[C@@H]1CCC(C)=C[C@@H]21 [G, H]
Form Isolated 1-3 d ([1]; Experiment No. 5, Toluene/EtOH (1:9), 50 °C): H/G(tr) | Form Isolated 1-3 d ([1]; Experiment No. 6, n-BuOH, 50 °C): H/G(tr) | Form Isolated 1-3 d ([1]; Experiment No. 11, Toluene/EtOH (1:9), 25 °C): G/H | Form Isolated 1-3 d ([1]; Experiment No. 12, Heptane, 25 °C): H/G

Source: patent publication US12522576B2, “Polymorphs of D9-THC naphthoylester” (priority 2019, dated 2026)
